From PMC9917025, “(2-Hydroxy-3-Methoxybenzylidene)thiazolo[3,2-a]pyrimidines: Synthesis, Self-Assembly in the Crystalline Phase and Cytotoxic Activity” (International Journal of Molecular Sciences, 2023)

Experiments:
[1] = system: M-HeLa clone 11 (epithelioid carcinoma of the cervix, subline HeLa, clone M-HeLa); assay: MTT cytotoxicity assay, M-HeLa cells; format: cell-based; settings: for IC50: Homo sapiens, M-HeLa, MTT, 48 h incubation, mean ± SD, triplicate; for selectivity index (SI): ratio between IC50 for normal cells and IC50 for tumor cells, with respect to M-HeLa cell line
From the text: (§1) For the experiments, the tumor cell cultures of M-HeLa clone 11 (epithelioid carcinoma of the cervix, subline HeLa., clone M-HeLa), HuTu 80, human duodenal adenocarcinoma, MCF7—human breast adenocarcinoma (pleural fluid) collected from the Institute of Cytology, Russian Academy of Sciences (St. Petersburg, Russia); PC3—prostate adenocarcinoma cell line collected from ATCC (American Type Cell Collection, Manassas, VA, USA; CRL 1435; human liver cells (Chang liver) and the Research Institute of Virology of the Russian Academy of Medical Sciences (Moscow, Russia) were used for cytotoxicity analysis.
(§2) The cytotoxic effect on cells was determined by the colorimetric method of cell proliferation—MTT test. The cells were seeded on a 96-well Nunc plate at a concentration of 5 × 10^3 cells per well in a volume of 100 µL of medium and cultured in a CO2 incubator at 37 °C until a monolayer was formed. Then, the nutrient medium was removed and 100 μL of the test drug solution in these dilutions was added to the wells prepared directly in the nutrient medium with the addition of 5% DMSO to improve solubility. After 48 h of cell incubation with test compounds, the nutrient medium was removed from the plates and 100 μL of serum-free nutrient medium with MTT at a concentration of 0.5 mg/mL was added and incubated for 4 h at 37 °C. C. Formazan crystals were added to 100 µL of DMSO. The optical density was recorded at 540 nm on an Invitrologic microplate reader (Novosibirsk, Russia). The experiments for all compounds were repeated three times.

[2] = system: MCF−7 (human breast adenocarcinoma); assay: MTT cytotoxicity assay, MCF-7 cells; format: cell-based; settings: MCF7, 48 h incubation, mean ± SD, triplicate
Experimental: The cytotoxic effect on cells was determined by the colorimetric method of cell proliferation—MTT test. […] C. Formazan crystals were added to 100 µL of DMSO. The optical density was recorded at 540 nm on an Invitrologic microplate reader (Novosibirsk, Russia). The experiments for all compounds were repeated three times.

[3] = system: PC3 (prostate adenocarcinoma cell line); assay: MTT cytotoxicity assay, PC3 cells; format: cell-based; settings: Homo sapiens, PC-3, 48 h incubation, mean ± SD, triplicate
From the text: as §1, §2

[4] = system: HuTu 80 (human duodenal adenocarcinoma); assay: MTT cytotoxicity assay, HuTu 80 cells; format: cell-based; settings: for IC50: Homo sapiens, HuTu80, MTT, 48 h incubation, mean ± SD, triplicate
From the text: as §1, §2

[5] = system: Chang liver (HeLa derivative), human liver cells; assay: MTT cytotoxicity assay, normal Chang liver cells; format: cell-based; settings: for IC50: Homo sapiens, HeLa, MTT, 48 h incubation, mean ± SD, triplicate, read-out: IC50 (µM) Chang Liver (HeLa), normal cell line
From the text: as §1, §2

| Structure (SMILES) | cytotoxicity against M-HeLa (in words) [1] | IC50 [1] [µM] | selectivity index (SI) [1] | efficiency of cytotoxicity towards M-HeLa compared to Sorafenib ([1]; relative to reference drug Sorafenib) | IC50 [2] [µM] | IC50 [3] [µM] | IC50 [4] [µM] | activity on normal cells, Chang liver (in words) [5] | IC50 [5] [µM] | melting point [°C] | cytotoxicity towards HuTu 80 (in words) [4] |
| --- | --- | --- | --- | --- | --- | --- | --- | --- | --- | --- | --- |
| CCOC(=O)C1=C(C)N=c2s/c(=C\c3cccc(OC)c3O)c(=O)n2C1c1cccc([N+](=O)[O-])c1 (stereo not shown) [Compound 2, Ethyl (Z)−2-(2-hydroxy−3-methoxybenzylidene)−7-methyl−5-(3-nitrophenyl)−3-oxo−2,3-dihydro−5H-thiazolo[3,2-a]pyrimidine−6-carboxylate] | high cytotoxicity | 16.2 ± 1.3 | higher than 6 | two times higher | 72 ± 5.8 | > 100 | 90 ± 8 | low biological activity | > 100 | 206 to 208 |  |
| CNC(=O)c1cc(Oc2ccc(NC(=O)Nc3ccc(Cl)c(C(F)(F)F)c3)cc2)ccn1 [Sorafenib, reference compound] |  | 25 ± 1.8 | lower than 1 |  |  | 12.7 ± 1.1 | 13 ± 1.2 |  |  |  |  |
| CCOC(=O)C1=C(C)N=c2s/c(=C\c3cccc(OC)c3O)c(=O)n2C1c1cccc(Br)c1 (stereo not shown) [Compound 5, Ethyl 5-(3-bromophenyl)-(Z)−2-(2-hydroxy−3-methoxybenzylidene)−7-methyl−3-oxo−2,3-dihydro−5H-thiazolo[3,2-a]pyrimidine−6-carboxylate] |  | > 100 |  |  | > 100 | > 100 | 43.3 ± 3.4 | Moderate cytotoxicity | 51.4 ± 4.1 | 190 to 192 | Moderate cytotoxicity |
| CCOC(=O)C1=C(C)N=c2s/c(=C\c3cccc(OC)c3O)c(=O)n2C1c1ccc(Br)cc1 (stereo not shown) [Compound 6, Ethyl 5-(4-bromophenyl)-(Z)−2-(2-hydroxy−3-methoxybenzylidene)−7-methyl−3-oxo−2,3-dihydro−5H-thiazolo[3,2-a]pyrimidine−6-carboxylate] |  | 85 ± 7.8 |  |  | > 100 | 100 ± 8.6 | 90.3 ± 8.1 |  | 64.2 ± 5.1 | 234 to 236 |  |
| CCOC(=O)C1=C(C)N=c2s/c(=C\c3cccc(OC)c3O)c(=O)n2C1c1ccccc1OC (stereo not shown) [Compound 3, Ethyl (Z)-2-(2-hydroxy-3-methoxybenzylidene)-7-methyl-5-(2-methoxyphenyl)-3-oxo-2,3-dihydro-5H-thiazolo[3,2-a]pyrimidine-6-carboxylate] |  | 98.1 ± 7.7 |  |  | > 100 | 54.1 ± 4.3 | > 100 |  | 96 ± 7.5 | 193 to 195 |  |
| CCOC(=O)C1=C(C)N=c2s/c(=C\c3cccc(OC)c3O)c(=O)n2C1c1ccccc1 (stereo not shown) [Compound 4, Ethyl (Z)−2-(2-hydroxy−3-methoxybenzylidene)−7-methyl−5-phenyl−3-oxo−2,3-dihydro−5H-thiazolo[3,2-a]pyrimidine−6-carboxylate] |  | > 100 |  |  | > 100 | > 100 | > 100 |  | > 100 | 231 to 233 |  |
| COc1cccc(/C=c2\sc3n(c2=O)C(c2ccc(C)cc2)C(C(C)=O)=C(C)N=3)c1O (stereo not shown) [Compound 1, 6-Acetyl-(Z)−2-(2-hydroxy−3-methoxybenzylidene)−7-methyl−5-(p-tolyl)−2H-thiazolo[3,2-a]pyrimidine−3(5H)-one] |  | 88 ± 7 |  |  | > 100 | 57.4 ± 4.5 | 88 ± 6.9 |  | > 100 | 209 to 211 |  |
